“Also recorded” adds a separate entry of the source. Where two headings read alike, the source gives them in different places.
Columns and labels:
[1] = test system: H460 cells; assay: Autophagy Assay (Cyto-ID Green, flow cytometry); assay type: cell-based, human; settings: H460, 25 μM, positive control, 72 h and 96 h
Protocol: Autophagy Assay was performed as recommended by the manufacturers' instructions (Enzo ENZ-51031-[…]). Briefly, H460 cells were seeded into 6 well plates at 2.5 × 10^5 and 1 × 10^5 cells/well. Immediately after cell plating, chloroquine or […] were added at the concentrations indicated. Following compound treatment, cells were washed once in PBS and resuspended in x1 Cyto-ID Green autophagy detection reagent and incubated at room temperature for 30 min. Immediately prior to analysis, propidium iodide (PI) solution was added to the cell suspension at a final concentration of 2.5 μg/ml, to assess cell death. Analysis was carried out using FACSCalibur (BD Biosciences). Cyto-ID Green autophagy reagent was measured in the FL-1 channel (530/30 nm bandpass filters with excitation at 488 nm) and PI measured in the FL-3 channel (670 nm longpass filters with excitation at 488 nm).

[2] = test system: NCI-H460 cells; assay: Cellular ATP levels (CellTiter-Glo assay); assay type: cell-based, human; settings: H460, chloroquine, 96 hours after initial exposure (Figure 7B)
Protocol: Cellular ATP levels (CellTiter-Glo assay) Cells were grown, seeded and compound-treated as for the alamar Blue assay. A volume of the CellTiter-Glo reagent equal to the volume of cell culture media was added to the cells. Plates were mixed for 2 min on an orbital shaker to induce cell lysis before the plate was incubated at room temperature for 10 min to stabilize the signal. The luminescent signal was measured and the media only background was subtracted.

[3] = test system: NCI-H460 cells; assay: Mitochondrial function (alamar blue); assay type: cell-based, human; settings: H460, chloroquine, 96 hours after initial exposure (Figure 7B)
Protocol: Mitochondrial function (alamar blue) NCI-H460 cells were grown in Ham's F12 media supplemented with 10% FCS. Cells were harvested and added to 96-well plates at densities of 250-1000. Compounds were made up from stock solutions and added directly to cells at the concentrations indicated. Cells were grown with compound for the indicated time at 37°C, 5% CO2, in a humidified atmosphere. Alamar Blue 10% (v/v) was then added and incubated for a further 4 h, and fluorescent product detected using the BMG FLUOstar plate reader. The media only background was subtracted and the data analysed as appropriate.

[4] = test system: NCI-H460 cells; assay: Total cellular protein (sulphorhodamine B assay); assay type: cell-based, human; settings: H460, chloroquine, 96 hours after initial exposure (Figure 7B)
Protocol: Control medium/alamar blue were removed and 200 μl PBS was added. […] Wells were rinsed with water and allowed to air dry. Cells were then stained in 0.4% SRB solution, before rinsing with 1% acetic acid and air drying. Incorporated dye was solubilised in 10 mM Tris and absorbance measured at 565 nm and 690 nm. Absorbance measurements at 690 nm were subtracted from the 565 nm readings to correct for multi-well plate absorbance.

[5] = test system: Cdk1 and Cdk4 expression in RT112 cells; assay: Western blotting of Cdk1 and Cdk4 expression, RT112; assay type: cell-based, human; settings: RT112, 5 mM linear end-capped peptide, 0 - 10 days, Western blot
From the text: This co-expression is unaffected by cytocidal doses of cisdiamminedichloroplatinum but can accompany spontaneous cancer cell death. Whether or not Cdk1/Cdk4 co-expression remained constant in cancer cells dying as a result of exposure to PRGPRP was thus examined by Western blotting.
(§1) All cell lines were from certified sources.

[6] = test system: normal diploid human fibroblasts; assay: In-vitro morphological cell viability screen, normal fibroblasts; assay type: cell-based; settings: for effect on normal diploid fibroblasts (in words): 5 mM
Protocol: (§2) A broad search for possible biological activity associated with the [sequence] peptide sequence was initially instituted by screening human bladder cancer cell lines for potential in-vitro morphological changes, compared to control cultures of normal diploid human fibroblasts at 4-8 passages from primary culture as controls. […] The peptides were dissolved, over a range of concentrations, in Ham's F12 + 10% FCS and introduced in 100 μL quantities to microwells containing 500 RT112 bladder cancer cells, or normal diploid human fibroblasts, in 200 μL of Ham's F12 + 10% FCS plated 24 hours earlier on 96 well plates.

[7] = test system: RT112 human bladder cancer cells; assay: In-vitro morphological cell viability screen, RT112; assay type: cell-based; settings: for Cell Viability Human Bladder Cancer: RT112, dose 5.0 mM, Ham's F12 + 10% FCS, morphological appearance
Protocol: as §2

[8] = test system: H460 Human Non-small Cell Lung Cancer
[9] = test system: H460 human non-small cell lung cancer cells; assay: Necrosis assay by Trypan Blue exclusion, H460; assay type: cell-based; settings: H460, 200 μM, 2, 3, 4 and 7 days after plating, triplicate wells
Protocol: Necrosis Assay Cells were plated in triplicate in 96 well plates at concentrations of 500 cells per well (HT1299, MCF-7) or 1000 cells per well (H460, MRC5-hTERT) in the presence or absence of the relevant compound and assessed by Trypan Blue exclusion At 2,3,4 and 7 days after plating. To assay, cells were trypsinised off, stained with trypan blue in isotonic medium and live and dead cells separately counted visually by haemocytomter. Each data point is the mean of results from triplicate wells (Solid lines - Live cells, Broken lines - Dead Cells; Blue - Control, Red - THR53 200 μM).

[10] = test system: RT112 human bladder cancer and H460 human non-small lung cancer cell lines; assay: Cell killing by cyclic amphiphilic peptides (viability and clonogenic survival); assay type: cell-based; settings: for improvement in selective cancer cell cytotoxicity: cyclic amphiphilic cassettes compared with the earlier PRGPRP peptides; for time at which cell killing reached a maximum: for the majority of cell lines
From the text: Attempts to limit proteolysis and improve cell uptake, by incorporating the hexameric peptide sequence into cyclic peptide cassettes were undertaken, initially without success (Table 3,X-XIII). Linear constructs attaching PRGPRP to a known cell-internalising amphiphilic sequence were also unsuccessful (Table 3,XIV and 3XV). […] Selective toxicity to these cancer cell lines, and not normal fibroblasts, was retained (Table 4).
as §1

[11] = dose 5.0 mM, Ham's F12 + 10% FCS, morphological appearance

Row | Molecule | Cell Viability Normal Diploid Fibroblasts [6, 11] | Cell Viability Human Bladder Cancer [7] | Cell Viability Human Non-small Cell Lung Cancer ([8]; H460, dose 200 μM) | Cell Viability Normal Diploid Fibroblasts ([6]; dose 200 μM) | further results
1 | CCN(CC)CCCC(C)Nc1ccnc2cc(Cl)ccc12 (centres unmarked) [Chloroquine, reference compound] |  |  |  |  | autophagy, Cyto-ID Green FL-1 peak [1]: increase in autophagy; ATP levels [2]: ubiquitous effect; mitochondrial oxidation/reduction [3]: ubiquitous effect; total cellular protein [4]: ubiquitous effect
2 | Ac-PRGPRP-NH2 [THR1, linear N'-capped PRGPRP-amide hexapeptide] | + + + + + | - - - |  |  | Cdk1 expression compared to Cdk4 [5]: progressive rise; effect on normal diploid fibroblasts (in words) [6]: stimulates normal fibroblast growth; also recorded: increases the confluent cell density; toxicity to RT112 human bladder cancer cells (in words) ([7]; 5 mM): greater selective toxicity; also recorded: complete necrosis
3 | Cyc-GGGGGGPRGPRPGGGGGG] (head to tail) [XII] |  |  | + + + | + + + | 
4 | Cyc-[AAAGGGPRGPRPGGGAAA] (head to tail) [X, cyclic non-amphiphilic analogue of PRGPRP, Cyc-[…]] |  |  | + + + | + + + | 
5 | Cyc-[AAGPGGPRGPRPGGPGAA] (head to tail) [XIII, cyclic non-amphiphilic analogue of PRGPRP, Cyc-[…]] |  |  | + + + | + + + | 
6 | Cyc-[FPPRRPGPVKLALKLALK] (head to tail) [THR53C, PRRPGP in cyclic amphiphilic cassette, Cyc-[…]] |  |  | + + + | + + + | necrosis detected by trypan blue uptake [9]: not with THR53C
7 | Cyc-[GGGGGGPRGPRPGGGGGG] (head to tail) [XI, cyclic non-amphiphilic analogue of PRGPRP, Cyc-[…]] |  |  | + + + | + + + | 
8 | Cyc-[PR(Me)GPRPVALKLALKLAL] (head to tail) [XX] |  |  | + +/- |  | 
9 | Cyc-[PRGPR(Me)PVALKLALKLAL] (head to tail) [XXI] |  |  | ++ + |  | 
10 | Cyc-[PRGPRPVALKLALKLAL] (head to tail) [THR54, cyclic amphiphilic analogue, Cyc-[…]] |  |  |  |  | Cell Viability Human Non-small Cell Lung Cancer ([8]; H460, dose 100 μM): _ _ _; Cell Viability Normal Diploid Fibroblasts ([6]; dose 100 μM): + + +; improvement in selective cancer cell cytotoxicity [10]: fifty- to a hundred-fold improvement; time at which cell killing reached a maximum [10]: ≤ 4 days
11 | Cyc-[PRGPRPvalklalklal] (head to tail) [THR79, cyclic amphiphilic analogue with D-amino acids, Cyc-[PRGPRPvalklalklal]] |  |  |  |  | Cell Viability Human Non-small Cell Lung Cancer ([8]; H460, dose 50 μM): _ _ _; Cell Viability Normal Diploid Fibroblasts ([6]; dose 50 μM): + + +; improvement in selective cancer cell cytotoxicity [10]: fifty- to a hundred-fold improvement; time at which cell killing reached a maximum [10]: ≤ 4 days
12 | FPPRGPRPVQ [I] |  |  |  |  | effect on normal fibroblasts (in words) ([6]; 1.0 mM): partial sparing; Cell Viability Normal Diploid Fibroblasts ([6]; dose 1.0 mM, Ham's F12 + 10% FCS, morphological appearance): + +/-; toxicity to RT112 human bladder cancer cells (in words) ([7]; 1.0 mM): selectively toxic
13 | Linear FPPRGPRPVKLALKLALK [XIV, linear amphiphilic analogue of PRGPRP, …] |  |  | + + + | + + + | 
14 | Linear PRGPRPVALKLALKLAL [XV, linear amphiphilic analogue of PRGPRP, …] |  |  | + + + | + + + | 
15 | PEGPEP [IX, hexapeptide with both arginines substituted by glutamic acid] | + + + | + + + |  |  | 
16 | PEGPRP [VII, hexapeptide with arginine substituted by glutamic acid] | + + + | + + + |  |  | effect on normal diploid fibroblasts (in words) [6]: no effect; toxicity to RT112 human bladder cancer cells (in words) ([7]; 5 mM): lacked cytotoxic activity
17 | PRGPEP [VIII, hexapeptide with arginine substituted by glutamic acid] | + + + | + + + |  |  | effect on normal diploid fibroblasts (in words) [6]: no effect; toxicity to RT112 human bladder cancer cells (in words) ([7]; 5 mM): lacked cytotoxic activity
18 | PRGPR [III, linear N'-capped synthetic peptide amide PRGPR] | + + + | - - - |  |  | 
19 | PRRPGP [VI, linear end-capped hexapeptide PRRPGP, one arginine transposed] | + + + | + + + |  |  | Cdk1 expression compared to Cdk4 [5]: not PRRPGP; toxicity to RT112 human bladder cancer cells (in words) ([7]; 5 mM): markedly diminishes RT112 human bladder cancer cell killing
20 | RGPR [V, shorter linear peptide RGPR] | + + + | + + + |  |  | toxicity to RT112 human bladder cancer cells (in words) ([7]; 5 mM): inactive
21 | RGPRP [IV, linear N'-capped synthetic pentapeptide amide RGPRP] | + + + |  |  |  | effect on normal diploid fibroblasts (in words) [6]: sparing normal diploid fibroblasts; toxicity to RT112 human bladder cancer cells (in words) ([7]; 5 mM): greater selective toxicity

— paper PMC3126777, “Selective anticancer activity of a hexapeptide with sequence homology to a non-kinase domain of Cyclin Dependent Kinase 4” (Molecular Cancer, 2011)
